Patent publication US20260002166A1, “GENETIC ENGINEERING OF MARINE BACTERIA FOR BIOMATERIAL PRODUCTION, PROBIOTIC USE IN AQUACULTURE AND MARINE ENVIRONMENTAL RESTORATION” (San Diego State University (SDSU) Foundation, dba San Diego …, priority 2022, published 2026)
Values after ≈ are worked out from the molar mass of the structure shown.

How the values were obtained:
[1] = tested on: Leisingera sp. 204H (NJS204, Wild type); assay: Minimum inhibitory concentration of kanamycin; type: cell-based
Protocol: (§1) • 1. Streak out marine microbes onto Marine Agar plates and incubate overnight at 25° C.-28° C. Some strains take longer to grow to single colonies. Incubation times longer than 24 hours may be required for some slower growing strains. Monitor growth in future steps accordingly.
(§2) • 2. Inoculate a single colony into 5 mL Marine Broth (2216) media in the late afternoon/early evening. Incubate overnight at 25 C, shaking at 200 rpm.
(§3) • 3. Measure optical density (OD600) of overnight culture growth and document. • 4. Pipette 100 μL of overnight culture from each strain onto Marine Agar plates containing either Strep (for background resistance), Kan (MIC), Gent (MIC) at each concentration (25 μg/mL, 50 μg/mL, 100 μg/mL and 200 μg/mL). • 5. Use beads or plate spreader to spread the culture evenly on the plate. Remove the beads and incubate overnight at 25° C. overnight.
(§4) • 6. Observe and document growth on all concentration plates. For the MICs (Kan/Gent) identify the lowest concentration of media in which no colonies are observed. If there are no colonies at any concentration, screen lower concentrations of Kanamycin/Gentamicin in the media (i.e. 5, 10, 15, 20 μg/mL). • 7. For the Streptomycin Resistant strain, select a single colony from the highest dose of Streptomycin that has growth and streak it out onto a plate containing the same concentration and a plate containing the next highest concentration of antibiotics. Incubate overnight at 25 C.
(§5) • 8. Observe and document growth on both the MIC plates (2 days old) and the Streptomycin resistance plates. If Streptomycin resistance is sustained at less than 200 μg/mL, then continue step 7, passaging the strains onto higher concentrations of antibiotics. Once robust growth occurs at 200 μg/mL, inoculate a single colony into 5 mL Marine Broth containing Strep 200 μg/mL and incubate 25° C. overnight, shaking at 200 rpm.

[2] = tested on: Ruegeria pomeroyi DSS-3 (NJS409); assay: Minimum inhibitory concentration of kanamycin; type: cell-based; conditions: Ruegeria pomeroyi DSS-3, Wild type
Protocol: as §1, §2, §3, §4, §5

[3] = tested on: Endozoicomonas montiporae CL-33 (NJS662); assay: Minimum inhibitory concentration of kanamycin; type: cell-based; conditions: Endozoicomonas montiporae CL-33, Wild type
Protocol: as §1, §2, §3, §4, §5

[4] = tested on: Photobacterium mandapamensis svers.3.2 (MT002); assay: Minimum inhibitory concentration of kanamycin; type: cell-based; conditions: Photobacterium leiognathi, Photobacterium mandapamensis svers.3.2, Wild type
Protocol: as §1, §2, §3, §4, §5

[5] = tested on: Vibrio harveyi (NJS675, StrR); assay: Minimum inhibitory concentration of kanamycin; type: cell-based; conditions: read-out: MIC Kan
Protocol: as §1, §2, §3, §4, §5

[6] = tested on: Pseudoalteromonas sp. PS5 (NJS597, StrR); assay: Minimum inhibitory concentration of kanamycin; type: cell-based; conditions: read-out: MIC Kan
Protocol: as §1, §2, §3, §4, §5

[7] = tested on: Phaeobacter gallaeciensis ATCC 700781 (DSM 26640) (NJS408, Wild type); assay: Minimum inhibitory concentration of kanamycin; type: cell-based; conditions: Phaeobacter gallaeciensis ATCC 700781, Wild type
Protocol: as §1, §2, §3, §4, §5

[8] = tested on: Phaeobacter sp. HS012 (NJS491); assay: Minimum inhibitory concentration of kanamycin; type: cell-based; conditions: Phaeobacter sp. HS012, Wild type
Protocol: as §1, §2, §3, §4, §5

[9] = tested on: Pseudoalteromonas luteoviolacea HI1 (NJS005, StrR); assay: Minimum inhibitory concentration of kanamycin; type: cell-based; conditions: read-out: MIC Kan
Protocol: as §1, §2, §3, §4, §5

Shimia sp. MMG (NJS302) = assay: Minimum inhibitory concentration of kanamycin; type: cell-based; conditions: Wild type
Protocol: as §1, §2, §3, §4, §5

[10] = tested on: Nereida sp. MMG025 (NJS678); assay: Minimum inhibitory concentration of kanamycin; type: cell-based; conditions: Nereida sp. MMG025, Wild type
Protocol: as §1, §2, §3, §4, §5

Cobetia sp. MMG (NJS775) = assay: Minimum inhibitory concentration of kanamycin; type: cell-based; conditions: Wild type
Protocol: as §1, §2, §3, §4, §5

phytoplankton = conditions: [31]; cited from earlier work
sea urchin = conditions: [32]; cited from earlier work
[11] = tested on: Pacific and Atlantic corals; conditions: synthesized TBP; cited from earlier work
[12] = tested on: two other types of invertebrate larvae; conditions: two other types of invertebrate larvae [29]; cited from earlier work

| SMILES | MIC [1] [µg/mL] | MIC [2] [µg/mL] | MIC [3] [µg/mL] | MIC [4] [µg/mL] | MIC [5] [µg/mL] | MIC [6] [µg/mL] | MIC [7] [µg/mL] | MIC [8] [µg/mL] | MIC [9] [µg/mL] | MIC (Shimia sp. MMG (NJS302)) [µg/mL] | MIC [10] [µg/mL] | MIC (Cobetia sp. MMG (NJS775)) [µg/mL] | Phytoplankton mortality (phytoplankton) | Sea urchin development (sea urchin) | Induction of coral metamorphosis [11] | Metamorphosis in other invertebrate larvae [12] |
| --- | --- | --- | --- | --- | --- | --- | --- | --- | --- | --- | --- | --- | --- | --- | --- | --- |
| NC[C@H]1O[C@H](O[C@H]2[C@H](O)[C@@H](O[C@H]3O[C@H](CO)[C@@H](O)[C@H](N)[C@H]3O)[C@H](N)C[C@@H]2N)[C@H](O)[C@@H](O)[C@@H]1O [Kan, kanamycin] | 200 (≈ 413 µM) | 300 (≈ 619 µM) | 100 (≈ 206 µM) | 400 (≈ 826 µM) | 200 (≈ 413 µM) | 200 (≈ 413 µM) | 300 (≈ 619 µM) | 300 (≈ 619 µM) | 200 (≈ 413 µM) | 300 (≈ 619 µM) | 200 (≈ 413 µM) | 200 (≈ 413 µM) |  |  |  |  |
| Brc1[nH]c(Br)c(Br)c1Br [TBP, tetrabromopyrrole] |  |  |  |  |  |  |  |  |  |  |  |  | elicits phytoplankton mortality | halts sea urchin development | induce robust metamorphosis | not eliciting robust metamorphosis |
